Measurements taken from US8858995B2, “Methods and compositions for controlled delivery of phytochemical agents” (priority 2008, dated 2014).
Like-named read-outs stand apart in the source and are kept apart here. Blank lines part the entries; values can stand above or below the compound they belong to.

Assays:
[1] = Tissue curcuminoid levels after coated implants (UPLC); type: in vivo, A/J mice; conditions: female, A/J, mouse
Description: Briefly, liver and brain tissues (500 and 400 mg, respectively) from each animal were homogenized in 3 ml PBS (pH 7.4) containing 200 μl of 0.5 M sodium acetate, and extracted with ethyl acetate. After evaporation of the pooled extracts, the residue was reconstituted in 100 μl acetonitrile and analyzed by UPLC using Shimadzu UPLC system (Kyoto, Japan), with a Shim-Pack XR-ODS II reverse phase column (Shimadzu; 150×3.0 mm i.d., 2.2 μm).

[2] = tested on: DNA adducts in the liver; assay: Liver DNA adducts after a bolus dose of dibenzo[a,1]pyrene (32P-postlabeling); type: in vivo, Sprague-Dawley rats; conditions: 2 cm PCL:cyclodextrin (9:1) matrix, 10% w/w; bolus dibenzo[a,1]pyrene; 5 days after carcinogen
Description: Eleven days later, the animals were treated with a bolus dose of dibenzo[a,1]pyrene. The animals were then euthanized 5 days after the carcinogen treatment and liver samples were collected.

[3] = tested on: DBP-DNA adducts; assay: Dibenzo[a,I]pyrene (DBP)-DNA adducts in lung (32P-postlabeling); type: in vivo, A/J mice; conditions: two 1.5 cm coated implants; DBP implant; 3 weeks
Description: (§1) To assess the coated implants (i.e., where the compositions were in the form of coatings), in vivo studies were also performed. […] All groups of animals were also treated with dibenzo[a,I]pyrene (DBP) via polymeric implants (1-cm, 1.4 mm dia, 5% DBP load) at the same time. Implants were grafted subcutaneously, and animal were euthanized after 3 weeks. […] In both cases, animals were euthanized by CO2 asphyxiation and selected tissues (lung, liver and brain) were collected and stored at −80° C. until processing. Implants were also recovered, dried under vacuum and stored in amber vials under argon at 4° C. until analysis.
To analyze the formation of DNA adducts, DNA was isolated from lung tissue (200 mg) by treatment of the isolated crude nuclei with RNases and proteinase K, followed by extractions with phenol, phenol:Sevag and Sevag. DNA was recovered by ethanol precipitation and its concentration was measured spectrophotometrically considering 1 A260 equals 50 μg DNA. DNA adducts were analyzed by nuclease P1-mediated ^32P-postlabeling/TLC assay and expressed as adducts per 10^9 nucleotides.

[4] = In vitro release from coated (and extruded) polymeric implants; type: physicochemical
Description: To formulate the “coated” polymeric implants, blank P-80 implants (1.4 mm dia) were then prepared by dissolving P-80:F68 (9:1) in dichloromethane, followed by evaporation of the solvent in a Petri dish under hood and extrusion of the molten polymer through a silastic tubing mold, similar to the methodologies described herein above. […] For coating, one end of the blank implant (2.5-3.5 cm) was inserted into a silastic tube plug (6 mm long, 1.4 mm dia) while the other end of the plug was attached with a pipet tip. Coatings were then added by dipping the blank implant into the solution with intermittent drying with cool air using a commercial hair dryer and placing them under hood. […] The assembly was placed under hood overnight to remove the residual DCM, implants were excised in 1 or 2 cm lengths and stored in amber vials under argon at -20° C. until used. The rate of in vitro release for the implants was subsequently measured. […] The vials were placed in a water bath (Julabo S W 23, Seelback, Germany) at 37° C. with constant agitation at 110 rpm. The medium was changed every 24 h.

[5] = mouse, sc
Description: as §1
The supernatants were diluted with ethanol:DCM (80:20) and their concentrations were measured spectrophotometrically at maximal absorbance and the concentrations were calculated against standard curves of individual compounds.

[6] = extruded implants
[7] = tested on: human lung cancer A549 cell xenografts; assay: Human lung cancer xenograft inhibition by withaferin A; type: in vivo, athymic nude mice
Description: Additionally, to assess the effect of the implants on tumor xenografts, five- to six-week old female athymic nude mice (Harlan Laboratories, Indianapolis, Ind.) were acclimated for a week and then inoculated with human lung cancer (A549) cells (3×10^6 cells) in matrigel. […] Animals were weighed and the tumors were measured by a digital caliper weekly. At the end of 6 to 8 weeks, animals were euthanized by CO2 asphyxiation, tumors were collected and measured.

[8] = tested on: breast cancer incidence; conditions: pre-menopausal women with a family history of breast cancer, high consumption; cited from earlier work
[9] = tested on: 17β-estradiol-induced mammary tumors; type: in vivo, ACI rats; conditions: for animals that developed palpable tumors: control 100% after 26 wks
Description: Cancer chemoprevention approaches have been used to manipulate tumorigenesis and reduce the transformation of normal/pre-cancerous cells to malignancy. Many compounds that have worked in cell culture studies though have failed in animal models and clinical trials due to lack of bioavailability. Additionally, the high doses required to elicit biological response can be toxic. The following experiments were designed to test the hypothesis that the effective dose of phytochemical agents, administered systemically via implantation of a silastic implant incorporating the agents, can be reduced substantially compared with the traditional dietary route and were also designed to determine the effect of individual phytochemical agents on mammary carcinogenesis. The silastic implants used in the experiments described below were fabricated by filling silastic tubing with a desired agent. Although the silastic implants are not biodegradable like compositions disclosed herein comprising biocompatible polymeric matrices, the silastic implants provide proof of concept that a reduced dose of phytochemical agents administered systemically can be effective in inhibiting mammary carcinogenesis.
Initially, an experiment was performed by subcutaneously implanting individual phytochemical agents using a large number of animals per group (n=17-19). […] Two weeks later, all groups received 3 cm biocompatible silastic implants incorporating 27 mg of 17β-estradiol. Six months later, after all animals had developed mammary tumors, the animals were euthanized and the mammary tumors were counted and their size measured. […] However, 30-55% reductions were found in the tumor burden with all test agents (FIG. 23A) as measured by tumor volume, with ellagic acid resulting in the most significant reduction in tumor burden (55%). The foregoing results thus support the effectiveness of ellagic acid, a significant component in certain berries, as an exemplary phytochemical compound that can be administered via a biocompatible silastic implant to inhibit or reduce estrogen-induced ACI rat mammary carcinogenicity.
To further evaluate the effectiveness of ellagic acid in estrogen-induced mammary carcinogenicity and to determine whether the effective dose of ellagic acid administered systemically via a biocompatible silastic implant can be reduced substantially compared with the traditional dietary route, ellagic acid was administered either in the diet (400 ppm) or by subcutaneous implantation of a biocompatible silastic implant incorporating an effective amount of ellagic acid (27 mg/implant, 4 implants). […] All groups received diet and water ad libitum. The body weight and diet consumption were recorded weekly. The animals were palpated for mammary tumors, and were euthanized when the largest tumor reached >1 cm. The first tumor in the control group appeared after nearly 84 days. However, the first tumor appearance with ellagic acid implants or ellagic acid-supplemented diet was somewhat delayed by 2 and 3 weeks, respectively. The control group reached 100% tumor incidence after 26 wks, but only 75% or 69% of the animals developed palpable tumors in the groups that received ellagic acid by implants or diet, respectively. […] Similar reductions were also observed in the tumor multiplicity (4.00±0.63 and 4.80±0.4 tumors/rat with implant and diet, respectively versus 6.77±0.87 in the control group) (FIG. 24A).
The total amount of ellagic acid administered during the entire duration of the study by diet was 800 mg/rat while the subcutaneous implantation of the biocompatible silastic implant incorporating ellagic acid delivered only 1.48±0.87 mg per implant, as determined by HPLC measurement of the material left in implants recovered after termination.

concentration at 21 days ([1]; in vivo): 1 ng/g
Compound: COc1cc(/C=C/C(O)=C/C(=O)/C=C/c2ccc(O)cc2)ccc1O [curcuminoid II, demethoxycurcumin]

release in PBS alone ([4]; 37° C., no serum): essentially no release
cumulative release after 60 days ([4]; in vitro): ~27%
cumulative release over 3 weeks (21 days) ([4]; in vitro, PBS with 10% bovine serum): about 12%
total release in vivo at the end of 3 weeks [5]: 18.6%
Compound: Cc1c(-c2cnccn2)ssc1=S [oltipraz]
DNA adducts in the liver [2]: reduced the amount of B[a]P-induced DNA adducts
lung DBP-DNA adduct levels [3]: reduction was statistically significant
release kinetics ([4]; PBS with 10% bovine serum, 60 days): essentially zero-order kinetics

Compound: CC(=O)OC(C)(C)/C=C/C(=O)[C@](C)(O)[C@H]1[C@H](O)C[C@@]2(C)[C@@H]3CC=C4[C@H](C[C@H](O)C(=O)C4(C)C)[C@]3(C)C(=O)C[C@]12C [cucurbitacin B]
burst release and local toxicity [6]: burst release phenomenon and sign of local toxicity

Compound: CC1=C(CO)C(=O)O[C@@H]([C@@H](C)[C@H]2CC[C@H]3[C@@H]4C[C@H]5O[C@]56[C@@H](O)C=CC(=O)[C@]6(C)[C@H]4CC[C@]23C)C1 [withaferin A]
lung DBP-DNA adduct levels [3]: reduction in the DNA adduct levels
burst release and local toxicity [6]: burst release phenomenon and sign of local toxicity
total dose administered via the implants ([7]; calculated from residual amount in the implants, versus 5.6 mg i.p.): 2.69 mg
reduction in the growth of the tumor ([7]; coated implants, two 1.5-cm, 5% drug load): 51%
body weight versus sham ([7]; end of the 8-week study, implants): essentially the same body weight
reduction of the tumor ([7]; intraperitoneally 4 mg/kg): no reduction
inhibition of the tumor ([7]; intraperitoneally 8 mg/kg on alternate days): 53%

concentration at 21 days ([1]; brain, subcutaneous, 2 1.5 cm implants (60 mg/implant, approximately 10% drug load), delivered individually by implant, 21 days, read-out: level in brain tissue): 6.4 ng/g
concentration at 21 days ([1]; liver, subcutaneous, 2 1.5 cm implants (60 mg/implant, approximately 10% drug load), delivered individually, two 1.5-cm implants, 21 days, read-out: level in the liver): 5 to 6 ng/g
Compound: O=C(/C=C/c1ccc(O)cc1)CC(=O)/C=C/c1ccc(O)cc1 [curcuminoid III, bisdemethoxycurcumin]

Compound: vitamin E
reduction in breast cancer incidence [8]: 43%

amount delivered per implant over the study ([9]; rat, in vivo): 1.48±0.87 mg per implant
Compound: O=c1oc2c(O)c(O)cc3c(=O)oc4c(O)c(O)cc1c4c23 [ellagic acid]
reduction in tumor burden (tumor volume) ([9]; 3 cm silastic implant, 27 mg agent, six months): 55%
tumor multiplicity ([9]; diet): 4.80±0.4 tumors/rat
delay of first tumor appearance ([9]; diet 400 ppm): 3 weeks
animals that developed palpable tumors ([9]; diet 400 ppm): 69%
tumor burden ([9]; dietary 400 ppm): 269±61 mm^3
tumor multiplicity ([9]; implant): 4.00±0.63 tumors/rat
tumor burden ([9]; implant (slow release)): 454±105 mm^3
animals that developed palpable tumors ([9]; implants): 75%
delay of first tumor appearance ([9]; silastic implants, 27 mg/implant, 4 implants): 2 weeks
